Measured values: US11339169B2, “P2X3 and/or P2X2/3 compounds and methods” (Asana BioSciences, LLC, priority 2016, dated 2022)

What was measured:
hP2X3 = target: T1, hP2X3 (Homo sapiens, UniProt P56373); assay: FLIPR intracellular calcium assay, hP2X3; type: cell-based; settings: human P2X3-HEK cells, agonist at EC75
T1 construct: host or cells: HEK (hP2X3-HEK)
T1 sequence (P56373 1-397): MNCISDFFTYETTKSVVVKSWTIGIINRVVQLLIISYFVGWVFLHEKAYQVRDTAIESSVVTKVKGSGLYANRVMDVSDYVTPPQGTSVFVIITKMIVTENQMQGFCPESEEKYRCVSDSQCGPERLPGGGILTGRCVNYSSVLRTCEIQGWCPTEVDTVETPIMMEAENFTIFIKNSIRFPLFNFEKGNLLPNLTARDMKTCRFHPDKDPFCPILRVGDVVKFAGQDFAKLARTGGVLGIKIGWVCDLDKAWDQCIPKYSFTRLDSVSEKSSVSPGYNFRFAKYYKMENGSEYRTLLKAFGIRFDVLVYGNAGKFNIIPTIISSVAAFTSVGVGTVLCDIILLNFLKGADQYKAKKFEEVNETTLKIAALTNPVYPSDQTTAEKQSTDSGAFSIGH
Method in brief: (§1)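 HEK (hP2X3) or tetracycline-inducible TRex293 (hP2X2/3) cells loaded with Calcium 4 dye, then given 11-point half-log compound dilutions for 15 min at room temperature in HBSS/HEPES, pH 7.4, with 1.8 mM CaCl2. Cells challenged with agonist at EC75; IC50 derived from fluorescence inhibition versus no-compound wells.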

Male Sprague Dawley rats = assay: In vivo thermal hyperalgesia (Hargreaves test), CFA-injected rat; settings: at 1 hour, p<0.01
Experimental: Male Sprague Dawley rats of young adult age group and body weight range of 180-200 g were included in the study. Animals were housed under a 12 h light/dark cycle with food and water ad libitum. The animals underwent acclimatization with the observation chambers of the Hargreaves' apparatus for two days, twice daily for 45-60 min each time prior to initiation of study. Animals were also habituated to the apparatus for 15-30 min before each testing. Thermal hyperalgesia was assessed using the rat plantar test (Ugo Basile, Italy) following a modified method of Hargreaves (1988), “A new and sensitive method for measuring thermal nociception in cutaneous hyperalgesia”, Pain 32: 77-88, the entire disclosure of which is herein incorporated by reference. […]
Following basal readout of PWL values to the thermal stimulus (PWL measurements described previously), 50 μL of complete Freund's Adjuvant (CFA—1 mg/mL suspension—Sigma, USA, Cat #F5881) was injected subcutaneously into the plantar surface of the right hind (ipsilateral) paw of animals under light isoflurane anesthesia. […]
Next day (day 1) after 20-22 h of CFA injection, PWL of animals were recorded. Mean of three readings are taken as PWL recording of ipsilateral paw of each animal for pre and post CFA basal readout. […]

hP2X2/3 = target: T2, hP2X2/3 (Homo sapiens, UniProt P56373+Q9UBL9); assay: FLIPR intracellular calcium assay, hP2X2/3; type: cell-based; settings: human P2X2/3-TRex293 cells, agonist at EC75
T2 construct: host or cells: TRex293 (hP2X2/3-TRex293), doxycycline-induced
T2 sequence (P56373 1-397): T1 sequence (P56373 1-397)
T2 sequence (Q9UBL9 1-471): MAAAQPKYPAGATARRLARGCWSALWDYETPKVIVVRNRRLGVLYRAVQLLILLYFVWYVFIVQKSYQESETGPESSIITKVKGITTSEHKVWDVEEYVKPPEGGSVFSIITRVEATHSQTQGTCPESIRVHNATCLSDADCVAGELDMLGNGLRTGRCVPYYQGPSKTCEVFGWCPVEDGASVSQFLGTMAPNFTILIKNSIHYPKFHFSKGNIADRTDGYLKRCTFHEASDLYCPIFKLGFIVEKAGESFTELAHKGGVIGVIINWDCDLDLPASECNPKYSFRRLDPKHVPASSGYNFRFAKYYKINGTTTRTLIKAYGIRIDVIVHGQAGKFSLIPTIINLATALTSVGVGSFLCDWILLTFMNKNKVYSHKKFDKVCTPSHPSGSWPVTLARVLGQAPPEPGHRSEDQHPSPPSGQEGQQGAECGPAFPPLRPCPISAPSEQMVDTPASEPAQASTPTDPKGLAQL
Method in brief: as §1

| Structure (SMILES) | IC50 (hP2X3) [nM] | reversal to pre-treatment PWL value (Male Sprague Dawley rats; 60 mg/kg po) [%] | IC50 (hP2X2/3) [nM] | reversal to pre-treatment PWL value (Male Sprague Dawley rats; 30 mg/kg po) [%] |
| --- | --- | --- | --- | --- |
| CC[C@H](C)n1ncc2nc(N3CCN(C(C)=O)CC3)nc(N[C@H](C)c3cnc4ccccc4c3)c21 [Example 19] | 1 to 100 | 36 | 100 to 1000 |  |
| CCC(C)n1ncc2nc(N3CCN(C(N)=O)CC3)nc(N[C@@H](c3cnc4ccccc4c3)C3CC3)c21 (stereo partly drawn) [Example 10, 4-{1-sec-Butyl-7-[((R)-cyclopropyl-quinolin-3-yl-methyl)-amino]-1H-pyrazolo[4,3-d]pyrimidin-5-yl}-piperazine-1-carboxylic Acid Amide] | 1 to 100 |  | 1 to 100 | 32 |
| CCC(C)n1cc2nc(N3CCN(C(C)=O)CC3)nc(NC(C)c3cnc4ccccc4c3)c2n1 (stereo not shown) [Example 4] | 1 to 100 |  | > 10000 |  |
| CCC(C)n1ncc2nc(C3CCN(C(N)=O)CC3)nc(N[C@@H](c3cnc4ccccc4c3)C3CC3)c21 (stereo partly shown) [Example 118] | 1 to 100 |  | 1000 to 10000 |  |
| CCC(C)n1ncc2nc(-c3cn[nH]c3)nc(N[C@@H](c3cnc4ccccc4c3)C3CC3)c21 (stereo partly shown) [Example 119] | 1 to 100 |  | 1000 to 10000 |  |
| CC[C@@H](C)n1ncc2nc(N3CCN(C(N)=O)CC3)nc(N[C@@H](c3cnc4ccccc4c3)C3CC3)c21 [Example 70] | 1 to 100 |  | 1 to 100 |  |
| NC(=O)N1CCN(c2nc(N[C@@H](c3cnc4ccccc4c3)C3CC3)c3c(cnn3C3CCOCC3)n2)CC1 [Example 72] | 1 to 100 |  | 1000 to 10000 |  |
| CCC(C)n1nc2c(N[C@H](C)c3cnc4ccccc4c3)nc(N3CCN(C(C)=O)CC3)nc2c1Br (stereo partly shown) [Example 105] | 1 to 100 |  | 1000 to 10000 |  |
| CC[C@H](C)n1ncc2nc(-c3cnn(CCF)c3)nc(NC(CO)c3cnc4ccccc4c3)c21 (stereo partly shown) [Example 122] | 1 to 100 |  | 100 to 1000 |  |
| CCC(CC)n1ncc2nc(N3CCN(C(C)=O)CC3)nc(NC(C)c3ccc4oc(C)cc4c3)c21 (stereo not shown) [Example 46] | 1 to 100 |  | 100 to 1000 |  |
| CCC(CC)n1ncc2nc(N3CCN(C(C)=O)CC3)nc(NCC3(c4ccc(Cl)cc4)CCC3)c21 [Example 29] | 1 to 100 |  | 1000 to 10000 |  |
| CCC(CC)n1ncc2nc(N3CCN(C(N)=O)CC3)nc(N[C@H](C)c3cnc4ccccc4c3)c21 [Example 51] | 1 to 100 |  | 1 to 100 |  |
| CC(=O)N1CCN(c2nc(N[C@H](C)c3cnc4ccccc4c3)c3c(cnn3C3CCC3)n2)CC1 [Example 48] | 1 to 100 |  | 1000 to 10000 |  |
| CCC(CC)n1ncc2nc(N3CCN(C(N)=O)CC3)nc(NCc3cnc4ccccc4c3)c21 [Example 64] | 1 to 100 |  | 1000 to 10000 |  |
| CCC(C)n1ncc2nc(N3CCN(C(C)=O)CC3)nc(NC(C)c3ccc4oc(C)cc4c3)c21 (stereo not shown) [Example 45] | 1 to 100 |  | 1000 to 10000 |  |
| CCC(C)n1ncc2nc(-c3cnn(CCO)c3)nc(N[C@@H](c3cnc4ccccc4c3)C3CC3)c21 (stereo partly shown) [Example 121] | 1 to 100 |  | 100 to 1000 |  |
| CCC(C)n1nc(Br)c2nc(N3CCN(C(C)=O)CC3)nc(N[C@H](C)c3cnc4ccccc4c3)c21 (stereo partly drawn) [Example 90, 1-{4-[3-Bromo-1-sec-butyl-7-((R)-1-quinolin-3-yl-ethylamino)-1H-pyrazolo[4,3-d]pyrimidin-5-yl]-piperazin-1-yl}-ethanone] | 1 to 100 |  | 1000 to 10000 |  |
| CC(=O)N1CCN(c2nc(N[C@H](C)c3cnc4ccccc4c3)c3nn(C(C)C)c(C#N)c3n2)CC1 [Example 103] | 1 to 100 |  | > 10000 |  |
| CCC(C)n1ncc2nc(N3CCN(/C(N)=N\C#N)CC3)nc(N[C@H](C)c3cnc4ccccc4c3)c21 (stereo partly drawn) [Example 111, 4-(1-sec-butyl-7-{[(R)-methyl(quinolin-3-yl)methyl]amino}-1H-pyrazolo[4,3-d]pyrimidin-5-yl)-N′-cyanopiperazine-1-carboximidamide] | 1 to 100 |  | 1 to 100 |  |
